Reference: patent US8951993B2, “Phosphorus containing compounds as protein kinase inhibitors” (Jiangsu Hansoh Pharmaceutical Co., Ltd., priority 2011, dated 2015)

Key:
[1] = system: SU-DHL-1; test: Cell proliferation assay (MTS / BrdU), SU-DHL-1; assay type: cell-based; conditions: Homo sapiens, 72 hours, 2% FBS
Protocol: (§1) Karpas299 and SU-DHL-1 cells were purchased from Deutsche Sammlung von Mikroorganismen and Zellkulturen (Germany). H2228 was purchased from American Type Culture Collection (USA). All cells were cultured in the recommended medium and serum concentration. Cells were maintained at 37° C. in a humidified atmosphere with 5% CO2. For ALK kinase phosphorylation, cells were seeded in 96-well plates overnight in medium supplemented with 10% fetal bovine serum […]. After 24 hours, the medium was removed and cells were cultured in serum-free medium at 37° C. in the presence of various concentrations of the test articles for 1 hour. After incubation with the tested articles, cells were washed once with HBSS supplemented with 1 mM Na3VO4 and protein lysates were generated. Subsequently, phosphorylation of ALK was assessed by a sandwich ELISA method using an immobilized anti-total-ALK antibody and an anti-phospho-ALK antibody (pY1604) as a detection antibody. IC50 value was calculated using median-effect method. (Chou 2006).
(§2) For cell proliferation assay, cells were seeded in 96-well pates at low density at 37° C. in medium supplemented with 10% FBS and after 24 hours were switched to low serum medium (2% FBS). Cells were further incubated in the presence of the test articles at various concentrations at 37° C. for 72 hours. Two assays were employed to determine the relative cell numbers. One is a 3-(4,5-dimethylthiazol-2-yl)-5-(3-carboxymethoxyphenyl)-2-(4-sulfophenyl)-2H-tetrazolium (MTS) assay using a CellTiter 96® Aqueous Non-Radioactive Cell Proliferation kit (Promega), and the other is a BrdU incorporation assay using a DELFIA® Cell Proliferation Kit (Perkin Elmer). IC50 value was calculated using median-effect method (Chou 2006).

[2] = molecular target: T1, ALK (Homo sapiens, UniProt Q9UM73); test: ALK enzyme activity assay (HTRF KinEASE); assay type: biochemical; parameters: purchased Millipore Company (Billerica, Mass., USA); conditions: ATP 25 μM, 30° C. 30 minutes
Protocol: ALK Enzyme Activity Assay:
ALK kinase was purchased from Millipore Company (Billerica, Mass., USA). HTRF®KinEASET™ was purchased from Cisbio Company (Bedford, Mass., USA). The assay was conducted according to the procedure provided in the assay kit. In brief, incubation was carried out in the kinase buffer containing ALK (0.3 ng/μL), ATP (25 μM), TK substrate-biotin (10 μM), DTT (1 mM), MgCl2 (5 mM), MnCl2 (5 mM) in the presence of the tested articles at various concentrations in 384-well plate at 30° C. for 30 minutes. The reaction was stopped by addition of Sa-XL665 in EDTA solution, and the phosphorylated substrate was detected with a proprietary phospho-specific monoclonal antibody labeled with Eu^3+-Cryptate and a proprietary biotinylated kinase substrate detected using XL665 labeled streptavidin. IC50 value was calculated using median-effect method (Chou 2006).
Target sequence in this assay (Q9UM73 19-1620): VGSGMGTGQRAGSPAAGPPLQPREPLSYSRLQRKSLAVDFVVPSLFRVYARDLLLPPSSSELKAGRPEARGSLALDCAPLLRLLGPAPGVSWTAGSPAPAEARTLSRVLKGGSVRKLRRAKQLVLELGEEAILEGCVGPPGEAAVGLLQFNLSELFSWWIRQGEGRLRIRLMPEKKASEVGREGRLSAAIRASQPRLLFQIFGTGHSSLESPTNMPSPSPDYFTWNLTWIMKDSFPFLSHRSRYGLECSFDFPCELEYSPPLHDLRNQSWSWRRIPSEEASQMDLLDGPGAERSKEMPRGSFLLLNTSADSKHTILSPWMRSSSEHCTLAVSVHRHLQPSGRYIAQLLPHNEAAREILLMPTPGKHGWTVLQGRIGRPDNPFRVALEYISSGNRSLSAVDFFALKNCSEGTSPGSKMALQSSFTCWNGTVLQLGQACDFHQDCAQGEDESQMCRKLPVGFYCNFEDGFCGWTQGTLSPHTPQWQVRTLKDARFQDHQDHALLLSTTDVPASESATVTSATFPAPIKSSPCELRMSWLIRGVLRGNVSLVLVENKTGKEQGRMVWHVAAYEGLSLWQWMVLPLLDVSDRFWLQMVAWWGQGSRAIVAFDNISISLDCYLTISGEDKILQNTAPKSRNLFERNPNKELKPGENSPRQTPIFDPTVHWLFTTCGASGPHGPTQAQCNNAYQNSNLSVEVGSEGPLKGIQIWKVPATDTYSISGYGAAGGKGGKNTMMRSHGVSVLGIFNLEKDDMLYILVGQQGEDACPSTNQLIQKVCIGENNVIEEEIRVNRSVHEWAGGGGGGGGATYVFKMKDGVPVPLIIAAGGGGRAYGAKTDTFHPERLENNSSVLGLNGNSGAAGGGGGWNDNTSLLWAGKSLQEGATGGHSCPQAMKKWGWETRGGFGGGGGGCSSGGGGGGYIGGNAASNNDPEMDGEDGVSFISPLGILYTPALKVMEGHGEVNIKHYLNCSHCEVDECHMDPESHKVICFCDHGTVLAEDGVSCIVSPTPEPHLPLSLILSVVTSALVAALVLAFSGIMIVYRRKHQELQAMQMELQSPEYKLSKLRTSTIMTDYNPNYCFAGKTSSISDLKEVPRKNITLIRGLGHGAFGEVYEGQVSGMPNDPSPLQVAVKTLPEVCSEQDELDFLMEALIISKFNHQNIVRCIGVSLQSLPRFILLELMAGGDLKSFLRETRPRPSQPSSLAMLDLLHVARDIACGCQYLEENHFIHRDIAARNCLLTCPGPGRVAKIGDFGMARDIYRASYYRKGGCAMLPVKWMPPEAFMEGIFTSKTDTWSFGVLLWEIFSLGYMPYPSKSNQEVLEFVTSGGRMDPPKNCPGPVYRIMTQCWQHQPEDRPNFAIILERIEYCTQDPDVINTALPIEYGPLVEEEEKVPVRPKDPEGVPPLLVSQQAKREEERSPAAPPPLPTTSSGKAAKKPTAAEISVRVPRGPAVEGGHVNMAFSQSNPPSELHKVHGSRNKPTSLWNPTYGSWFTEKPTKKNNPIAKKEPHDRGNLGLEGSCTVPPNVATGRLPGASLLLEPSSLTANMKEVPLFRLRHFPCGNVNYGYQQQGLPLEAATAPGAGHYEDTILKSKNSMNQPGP

[3] = system: Karpas299; test: Cell proliferation assay (MTS / BrdU), Karpas299; assay type: cell-based; conditions: Homo sapiens, KARPAS-299; 72 hours, 2% FBS
Protocol: as §1, §2

[4] = Pharmacokinetic assay, intravenous and oral administration; assay type: in vivo, Sprague-Dawley rats or beagle dogs; conditions: plasma
Protocol: The tested articles were given to Sprague-Dawley rats or beagle dogs by intravenous and oral administration. Plasma samples were prepared from blood samples which were collected at various time points. The plasma concentrations of the tested articles were determined by specific LC-MS/MS analytical methods. Pharmacokinetic parameters were calculated with WinNonlin®.

[5] = system: H2228; test: Cell proliferation assay (MTS / BrdU), H2228; assay type: cell-based; conditions: Homo sapiens, NCI-H2228; 72 hours, 2% FBS
Protocol: as §1, §2

[6] = molecular target: T1, ALK; test: Inhibition of ALK phosphorylation (sandwich ELISA, pY1604), cell line not given; assay type: cell-based; parameters: fused on or other part: Q9HC35 (Echinoderm microtubule-associated protein-like 4); conditions: 1 hour, serum-free
Protocol: as §1
Target sequence in this assay (Q9UM73 1058-1620 limits assumed): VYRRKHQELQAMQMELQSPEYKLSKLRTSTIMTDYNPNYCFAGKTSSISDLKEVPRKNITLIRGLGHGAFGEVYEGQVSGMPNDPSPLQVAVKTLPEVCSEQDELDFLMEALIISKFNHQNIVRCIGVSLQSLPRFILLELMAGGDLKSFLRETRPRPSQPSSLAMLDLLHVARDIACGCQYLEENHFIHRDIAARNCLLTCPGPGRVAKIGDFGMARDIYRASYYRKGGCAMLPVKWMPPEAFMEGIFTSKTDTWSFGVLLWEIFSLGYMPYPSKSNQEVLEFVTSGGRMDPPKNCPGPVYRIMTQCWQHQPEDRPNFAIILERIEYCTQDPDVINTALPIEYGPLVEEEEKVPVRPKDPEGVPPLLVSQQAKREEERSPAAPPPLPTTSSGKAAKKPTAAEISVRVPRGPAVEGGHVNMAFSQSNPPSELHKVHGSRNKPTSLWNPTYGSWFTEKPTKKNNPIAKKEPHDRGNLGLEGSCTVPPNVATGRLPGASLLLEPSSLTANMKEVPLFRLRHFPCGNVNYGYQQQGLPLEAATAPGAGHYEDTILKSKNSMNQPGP

CC(Oc1cc(-c2ccc(P(C)(C)=O)cc2F)cnc1N)c1c(Cl)ccc(F)c1Cl (stereo not drawn) [Example 13, 3-[1-(2,6-dichloro-3-fluoro-phenyl)ethoxy]-5-(4-dimethylphosphoryl-2-fluoro-phenyl)pyridin-2-amine]
IC50 [1]: 0.1 to 0.5 µM
IC50 [2]: < 0.1 µM
IC50 [3]: < 0.1 µM
half-life ([4]; after oral administration in rats or dogs): > 3 h
bioavailability ([4]; oral administration in rats or dogs, read-out: oral bioavailabilty): > 20%

CC(Oc1cc(-c2ccc(P(C)(C)=O)cn2)cnc1N)c1c(Cl)ccc(F)c1Cl (stereo not drawn) [Example 18, 3-[1-(2,6-dichloro-3-fluoro-phenyl)ethoxy]-5-(5-dimethylphosphoryl-2-pyridyl)pyridin-2-amine]
IC50 [1]: 0.1 to 0.5 µM
IC50 [2]: 0.1 to 0.5 µM
IC50 [3]: 0.1 to 0.5 µM

CC(Oc1cc(-c2ccc(P(C)(C)=O)cc2OC(F)(F)F)cnc1N)c1c(Cl)ccc(F)c1Cl (stereo not drawn) [Example 20, 3-[1-(2,6-dichloro-3-fluoro-phenyl)ethoxy]-5-[4-dimethylphosphoryl-2-(trifluoromethoxy)phenyl]pyridin-2-amine]
IC50 [1]: 0.1 to 0.5 µM
IC50 [2]: 0.5 to 1 µM

COc1cc(-c2cnc(N)c(OC(C)c3c(Cl)ccc(F)c3Cl)c2)c(F)cc1P(C)(C)=O (stereo not drawn) [Example 10, 3-[1-(2,6-dichloro-3-fluoro-phenyl)ethoxy]-5-(4-dimethylphosphoryl-2-fluoro-5-methoxy-phenyl)pyridin-2-amine]
IC50 [2]: 1 to 5 µM

CC(Oc1cc(-c2cncc(P(C)(C)=O)c2)cnc1N)c1c(Cl)ccc(F)c1Cl (stereo not drawn) [Example 6, 3-[1-(2,6-dichloro-3-fluoro-phenyl)ethoxy]-5-(5-dimethylphosphoryl-3-pyridyl)pyridin-2-amine]
IC50 [1]: 1 to 5 µM
IC50 [5]: 0.1 to 0.5 µM
IC50 [2]: 0.1 to 0.5 µM

CC(Oc1cc(-c2ccc(P(=O)(O)O)cc2)cnc1N)c1cc(F)ccc1Cl (stereo not drawn) [Example 27, [4-(6-amino-5-[1-(2-chloro-5-fluoro-phenyl)ethoxyl]-3-pyridyl]phenyl]phosphonic acid]
IC50 [1]: 1 to 5 µM
IC50 [2]: < 0.1 µM

CC(Oc1cc(-c2ccc(P(C)(C)=O)cc2Cl)cnc1N)c1c(Cl)ccc(F)c1Cl (stereo not drawn) [Example 19, 5-(2-chloro-4-dimethylphosphoryl-phenyl)-3-[1-(2,6-dichloro-3-fluoro-phenyl)ethoxy]pyridin-2-amine]
IC50 [1]: 0.1 to 0.5 µM
IC50 [2]: 0.1 to 0.5 µM

COc1cc(-c2cnc(N)c(OC(C)c3c(Cl)ccc(F)c3Cl)c2)ccc1P(C)(C)=O (stereo not drawn) [Example 12, 3-[1-(2,6-dichloro-3-fluoro-phenyl)ethoxy]-5-(4-dimethylphosphoryl-3-methoxy-phenyl)pyridin-2-amine]
IC50 [2]: < 0.1 µM

CCOP(=O)(OCC)c1ccc(-c2cnc(N)c(OC(C)c3cc(F)ccc3Cl)c2)cc1 (stereo not drawn) [Example 26, 3-[1-2-(2-chloro-5-fluoro-phenyl)ethoxy]-5-(4-diethoxyphosphorylphenyl)pyridine-2-amine]
IC50 [2]: 0.5 to 1 µM

CC(Oc1cc(-c2ccc(P(C)(C)=O)nc2)cnc1N)c1c(Cl)ccc(F)c1Cl (stereo not drawn) [Example 16, 3-[1-(2,6-dichloro-3-fluoro-phenyl)ethoxy]-5-(6-dimethylphosphoryl-3-pyridyl)pyridin-2-amine]
IC50 [1]: 1 to 5 µM
IC50 [2]: 0.5 to 1 µM

CC(Oc1cc(-c2ccc(P(C)(C)=O)c(F)c2)cnc1N)c1c(Cl)ccc(F)c1Cl (stereo not drawn) [Example 14, 3-[1-(2,6-dichloro-3-fluoro-phenyl)ethoxy]-5-(4-dimethylphosphoryl-3-fluoro-phenyl)pyridin-2-amine]
IC50 [1]: 1 to 5 µM
IC50 [2]: 1 to 5 µM

CC(Oc1cc(-c2ccc(P(C)(C)=O)cc2)cnc1N)c1cc(F)ccc1Cl (stereo not drawn) [Example 22, 3-[1-(2-chloro-5-fluoro-phenyl)ethoxy]-5-(4-dimethylphosphorylphenyl)pyridin-2-amine]
IC50 [1]: < 0.1 µM
IC50 [2]: 0.1 to 0.5 µM

CCOP(=O)(OCC)c1ccc(-c2cnc(N)c(O[C@H](C)c3c(Cl)ccc(F)c3Cl)c2)cc1 [Example 28, 3-[(1R)-1-2-(2,6-dichloro-3-fluoro-phenyl)ethoxy]-5-(4-diethoxyphosphorylphenyl)pyridine-2-amine]
IC50 [1]: 1 to 5 µM
IC50 [2]: 0.1 to 0.5 µM

CC(Oc1cc(-c2ccc(CN(CP(C)(C)=O)CP(C)(C)=O)cc2)cnc1N)c1c(Cl)ccc(F)c1Cl (stereo not drawn) [Example 4, 5-[4-[(bis(dimethylphosphorylmethyl)amino)methyl]phenyl]-3-[1-(2,6-dichloro-3-fluoro-phenyl)ethoxy]pyridin-2-amine]
IC50 [5]: 1 to 5 µM
IC50 [2]: 0.1 to 0.5 µM

CC(Oc1cc(-c2ccc(P(C)(C)=O)cc2)cnc1N)c1cc(Cl)ccc1Cl (stereo not drawn) [Example 21, 3-[1-(2,5-dichlorophenyl)ethoxy]-5-(4-dimethylphosphorylphenyl)pyridin-2-amine]
IC50 [1]: < 0.1 µM
IC50 [2]: 0.1 to 0.5 µM

C[C@@H](Oc1cc(-c2ccc(P(=O)(O)O)cc2)cnc1N)c1c(Cl)ccc(F)c1Cl [Example 29, [4-(6-amino-5-[(1R)-1-(2,6-dichloro-3-fluoro-phenyl)ethoxyl]-3-pyridyl]phenyl]phosphonic acid]
IC50 [1]: 1 to 5 µM
IC50 [2]: < 0.1 µM

CC(Oc1cc(-c2ccc(P(C)(C)=O)cc2C(F)(F)F)cnc1N)c1c(Cl)ccc(F)c1Cl (stereo not drawn) [Example 15, 3-[1-(2,6-dichloro-3-fluoro-phenyl)ethoxy]-5-[4-dimethylphosphoryl-2-(trifluoromethyl)phenyl]pyridin-2-amine]
IC50 [2]: 0.5 to 1 µM

CC(Oc1nc(-c2ccc(P(C)(C)=O)cc2)cnc1N)c1c(Cl)ccc(F)c1Cl (stereo not drawn) [Example 11, 3-[1-(2,6-dichloro-3-fluoro-phenyl)ethoxy]-5-(4-dimethylphosphorylphenyl)pyrazin-2-amine]
IC50 [1]: 0.1 to 0.5 µM
IC50 [2]: 0.1 to 0.5 µM

CC(Oc1cc(-c2cnn(C3CCN(CP(C)(C)=O)CC3)c2)cnc1N)c1c(Cl)ccc(F)c1Cl (stereo not drawn) [Example 2, 3-[1-(2,6-dichloro-3-fluoro-phenyl)ethoxy]-5-[1-[1-(dimethylphosphorylmethyl)-4-piperidyl]pyrazol-4-yl]pyridin-2-amine]
IC50 [5]: 1 to 5 µM
IC50 [2]: < 0.1 µM
IC50 [6]: < 0.5 µM

CC(Oc1cc(-c2ccc(P(C)(C)=O)c3ccccc23)cnc1N)c1c(Cl)ccc(F)c1Cl (stereo not drawn) [Example 9, 3-[1-(2,6-dichloro-3-fluoro-phenyl)ethoxy]-5-(4-dimethylphosphoryl-1-naphthyl)pyridin-2-amine]
IC50 [2]: 1 to 5 µM

CC(Oc1cc(-c2ccc(COP(C)(C)=O)cc2)cnc1N)c1c(Cl)ccc(F)c1Cl (stereo not drawn) [Example 7, 3-[1-(2,6-dichloro-3-fluoro-phenyl)ethoxy]-5-[4-(dimethylphosphoryloxymethyl)phenyl]pyridin-2-amine]
IC50 [2]: 0.1 to 0.5 µM

CC(Oc1cc(-c2ccc(P(C)(C)=O)cc2O)cnc1N)c1c(Cl)ccc(F)c1Cl (stereo not drawn) [Example 17, 2-[6-amino-5-[1-(2,6-dichloro-3-fluoro-phenyl)ethoxy]-3-pyridyl]-5-dimethylphosphoryl-phenol]
IC50 [1]: < 0.1 µM
IC50 [2]: 0.1 to 0.5 µM

CC(Oc1cc(-c2ccc(CNCP(C)(C)=O)cc2)cnc1N)c1c(Cl)ccc(F)c1Cl (stereo not drawn) [Example 5, 3-[1-(2,6-dichloro-3-fluoro-phenyl)ethoxy]-5-[4-[(dimethylphosphorylmethylamino)methyl]phenyl]pyridin-2-amine]
IC50 [1]: 1 to 5 µM
IC50 [5]: 0.1 to 0.5 µM
IC50 [2]: 0.1 to 0.5 µM

CC(Oc1cc(-c2cnn(CP(C)(C)=O)c2)cnc1N)c1c(Cl)ccc(F)c1Cl (stereo not drawn) [Example 3, 3-[1-(2,6-dichloro-3-fluoro-phenyl)ethoxy]-5-[1-(dimethylphosphorylmethyl)pyrazol-4-yl]pyridin-2-amine]
IC50 [2]: 0.1 to 0.5 µM
